Laboratory results taken from ChEMBL document CHEMBL2046334, “New farnesyltransferase inhibitors in the phenothiazine series” (Bioorg Med Chem Lett, 2012).
Activity calls are given as the source filed them. The rule behind the calls is not given here.

How the values were obtained:
[1] = target: T1, Protein farnesyltransferase (Homo sapiens, UniProt P49354+P49356); experiment: Inhibition of partially purified human recombinant FTase at 100 uM measured for 15 mins by automated fluorescence based assay relative to control; type: protein-complex assay
[2] = target: T1, Protein farnesyltransferase; experiment: Inhibition of partially purified human recombinant FTase measured for 15 mins by automated fluorescence based assay; type: protein-complex assay
RPMI-8226 = experiment: Growth inhibition of human RPMI8226 cells at 10 uM after 48 hrs by sulforhodamine B assay relative to control; type: functional; details: RPMI-8226, 48 h, read-out: GI
SNB-75 = experiment: Growth inhibition of human SNB75 cells at 10 uM after 48 hrs by sulforhodamine B assay relative to control; type: functional; details: SNB-75, 48 h, read-out: GI
SK-MEL-5 = experiment: Growth inhibition of human SK-MEL-5 cells at 10 uM after 48 hrs by sulforhodamine B assay relative to control; type: functional; details: SK-MEL-5, 48 h, read-out: GI
MDA-MB-231 = experiment: Growth inhibition of human MDA-MB-231 cells at 10 uM after 48 hrs by sulforhodamine B assay relative to control; type: functional; details: MDA-MB-231, 48 h, read-out: GI
OVCAR-8 = experiment: Growth inhibition of human OVCAR8 cells at 10 uM after 48 hrs by sulforhodamine B assay relative to control; type: functional; details: for inhibition of growth at 10 µM: OVCAR-8, 48 h, read-out: GI
UO-31 = experiment: Growth inhibition of human UO31 cells at 10 uM after 48 hrs by sulforhodamine B assay relative to control; type: functional; details: UO-31, 48 h, read-out: GI
HL-60(TB) = experiment: Growth inhibition of human HL-60(TB) cells at 10 uM after 48 hrs by sulforhodamine B assay relative to control; type: functional; details: HL-60, 48 h, read-out: GI
MOLT-4 = experiment: Growth inhibition of human MOLT4 cells at 10 uM after 48 hrs by sulforhodamine B assay relative to control; type: functional; details: MOLT-4, 48 h, read-out: GI
EKVX = experiment: Growth inhibition of human EKVX cells at 10 uM after 48 hrs by sulforhodamine B assay relative to control; type: functional; details: for inhibition of growth at 10 µM: read-out: GI
HCT-15 = experiment: Growth inhibition of human HCT15 cells at 10 uM after 48 hrs by sulforhodamine B assay relative to control; type: functional; details: for inhibition of growth at 10 µM: HCT-15, 48 h, read-out: GI
CCRF-CEM = experiment: Growth inhibition of human CCRF-CEM cells at 10 uM after 48 hrs by sulforhodamine B assay relative to control; type: functional; details: read-out: GI
UACC-62 = experiment: Growth inhibition of human UACC62 cells at 10 uM after 48 hrs by sulforhodamine B assay relative to control; type: functional; details: UACC-62, 48 h, read-out: GI
PC-3 = experiment: Growth inhibition of human PC3 cells at 10 uM after 48 hrs by sulforhodamine B assay relative to control; type: functional; details: PC-3, 48 h, read-out: GI
LOX IMVI = experiment: Growth inhibition of human LOXIMVI cells at 10 uM after 48 hrs by sulforhodamine B assay relative to control; type: functional; details: for inhibition of growth at 10 µM: read-out: GI
T47D = experiment: Growth inhibition of human T47D cells at 10 uM after 48 hrs by sulforhodamine B assay relative to control; type: functional; details: read-out: GI
CAKI-1 = experiment: Growth inhibition of human Caki1 cells at 10 uM after 48 hrs by sulforhodamine B assay relative to control; type: functional; details: CAKI-1, 48 h, read-out: GI

For `O=C(CN1c2ccccc2Sc2ccccc21)NCc1cn(CC(=O)c2ccc(Cl)cc2)nn1`, the inhibition [1] was 40%.

`O=C(CN1c2ccccc2Sc2ccccc21)NCc1cn(CC(=O)N2c3ccccc3Sc3ccccc32)nn1` gave an inhibition [1] of 0%.

For `O=C(CCN1c2ccccc2Sc2ccccc21)OCc1cn(CC(=O)c2ccc(F)cc2)nn1`, the inhibition [1] was 35.2%.

`O=C(CCN1c2ccccc2Sc2ccccc21)OCc1cn(CC(=O)c2ccc(Br)cc2)nn1` showed an IC50 [2] of 1.3 µM.

`O=C(CCN1c2ccccc2Sc2ccccc21)NCc1cn(CC(=O)c2ccc(Br)cc2)nn1` gave an inhibition of growth at 10 µM (RPMI-8226) of 15%, an inhibition of growth at 10 µM (SNB-75) of 18% and an inhibition of growth at 10 µM (SK-MEL-5) of 24%. The inhibition of growth at 10 µM (MDA-MB-231) was 14%, the “growth inhibition (GI)” value (OVCAR-8) was “inactive” and the inhibition of growth at 10 µM (UO-31) was 42%. The inhibition of growth at 10 µM (HL-60(TB)) was 41%, the inhibition of growth at 10 µM (MOLT-4) was 34% and the inhibition of growth at 10 µM (EKVX) was 24%. For the same molecule, the inhibition of growth at 10 µM (HCT-15) was 7%, the inhibition of growth at 10 µM (CCRF-CEM) was 18% and the IC50 [2] was 8.3 µM. For the same molecule, the inhibition of growth at 10 µM (UACC-62) was 29%, the inhibition of growth at 10 µM (PC-3) was 42% and the inhibition of growth at 10 µM (LOX IMVI) was 17%. The inhibition of growth at 10 µM (T47D) was 29% and the inhibition of growth at 10 µM (CAKI-1) was 37%.

In the case of `COc1ccc(C(=O)Cn2cc(COC(=O)CCN3c4ccccc4Sc4ccccc43)nn2)cc1`, the inhibition [1] is reported as 22.3%.

Work on `O=C(CN1c2ccccc2Sc2ccccc21)NCc1cn(CC(=O)N2c3ccccc3Sc3ccc(Cl)cc32)nn1` yielded an inhibition [1] of 0%.

`Cc1ccc(C(=O)Cn2cc(CNC(=O)CN3c4ccccc4Sc4ccccc43)nn2)cc1` showed an inhibition [1] of 19%.

`N#Cc1ccc(C(=O)Cn2cc(COC(=O)CN3c4ccccc4Sc4ccccc43)nn2)cc1` showed an inhibition [1] of 20.7%.

Work on `O=C(CN1c2ccccc2Sc2ccccc21)NCc1cn(CC(=O)c2ccc(Br)cc2)nn1` yielded an inhibition of growth at 10 µM (RPMI-8226) of 22%, an inhibition of growth at 10 µM (SNB-75) of 18% and an inhibition of growth at 10 µM (SK-MEL-5) of 5%. For the same molecule, the inhibition of growth at 10 µM (MDA-MB-231) was 9%, the inhibition of growth at 10 µM (OVCAR-8) was 6% and the inhibition of growth at 10 µM (UO-31) was 13%. The inhibition of growth at 10 µM (HL-60(TB)) was 13%, the inhibition of growth at 10 µM (MOLT-4) was 42% and the “growth inhibition (GI)” value (EKVX) was “inactive”. The inhibition of growth at 10 µM (HCT-15) was 16%, the inhibition of growth at 10 µM (CCRF-CEM) was 17% and the IC50 [2] was 24.3 µM. For the same molecule, the inhibition of growth at 10 µM (UACC-62) was 25%, the “growth inhibition (GI)” value (LOX IMVI) was “inactive” and the inhibition of growth at 10 µM (T47D) was 12%. It also gave an inhibition of growth at 10 µM (CAKI-1) of 13%.

`COc1ccc(C(=O)Cn2cc(CNC(=O)CN3c4ccccc4Sc4ccccc43)nn2)cc1` showed an inhibition [1] of 24.4%.

Molecule `COc1ccc(C(=O)Cn2cc(CNC(=O)CCN3c4ccccc4Sc4ccccc43)nn2)cc1` has an inhibition [1] of 29.3%.

In the case of `Cc1ccc(C(=O)Cn2cc(CNC(=O)CCN3c4ccccc4Sc4ccccc43)nn2)cc1`, the inhibition [1] is reported as 44.2%.

In the case of `O=C(CN1c2ccccc2Sc2ccccc21)NCc1cn(CC(=O)c2ccc(F)cc2)nn1`, the inhibition [1] is reported as 0%.

`O=C(CCN1c2ccccc2Sc2ccccc21)NCc1cn(CC(=O)c2ccc(Cl)cc2)nn1` showed an inhibition of growth at 10 µM (RPMI-8226) of 19%, an inhibition of growth at 10 µM (SNB-75) of 20% and an inhibition of growth at 10 µM (SK-MEL-5) of 13%. It also gave an inhibition of growth at 10 µM (MDA-MB-231) of 4%, an inhibition of growth at 10 µM (OVCAR-8) of 17% and an inhibition of growth at 10 µM (UO-31) of 36%. The inhibition of growth at 10 µM (HL-60(TB)) was 68%, the inhibition of growth at 10 µM (MOLT-4) was 40% and the inhibition of growth at 10 µM (EKVX) was 30%. It also gave an inhibition of growth at 10 µM (HCT-15) of 8%, an inhibition of growth at 10 µM (CCRF-CEM) of 19% and an IC50 [2] of 7.7 µM. The inhibition of growth at 10 µM (UACC-62) was 26%, the inhibition of growth at 10 µM (PC-3) was 38% and the inhibition of growth at 10 µM (LOX IMVI) was 9%. The inhibition of growth at 10 µM (T47D) was 22% and the inhibition of growth at 10 µM (CAKI-1) was 32%.

Work on `O=C(CCN1c2ccccc2Sc2ccccc21)OCc1cn(CC(=O)c2ccc(Cl)cc2)nn1` yielded an IC50 [2] of 1.5 µM.

In the case of `Cc1ccc(C(=O)Cn2cc(COC(=O)CCN3c4ccccc4Sc4ccccc43)nn2)cc1`, the inhibition [1] is reported as 10.7%.

`O=C(CCN1c2ccccc2Sc2ccccc21)NCc1cn(CC(=O)N2c3ccccc3Sc3ccccc32)nn1` gave an inhibition [1] of 0%.

Molecule `O=C(CN1c2ccccc2Sc2ccccc21)OCc1cn(CC(=O)c2ccc(Br)cc2)nn1` has an inhibition [1] of 35.5%.

`O=C(CN1c2ccccc2Sc2ccccc21)OCc1cn(CC(=O)c2ccc(F)cc2)nn1` gave an inhibition [1] of 31.9%.

`N#Cc1ccc(C(=O)Cn2cc(CNC(=O)CCN3c4ccccc4Sc4ccccc43)nn2)cc1` was tested, and the IC50 [2] was 5.2 µM.

Molecule `O=C(CCN1c2ccccc2Sc2ccccc21)NCc1cn(CC(=O)c2ccc(F)cc2)nn1` has an inhibition of growth at 10 µM (RPMI-8226) of 3%, an inhibition of growth at 10 µM (SNB-75) of 19% and an inhibition of growth at 10 µM (SK-MEL-5) of 14%. The inhibition of growth at 10 µM (MDA-MB-231) was 3%, the “growth inhibition (GI)” value (OVCAR-8) was “inactive” and the inhibition of growth at 10 µM (UO-31) was 18%. For the same molecule, the inhibition of growth at 10 µM (HL-60(TB)) was 20%, the inhibition of growth at 10 µM (MOLT-4) was 38% and the inhibition of growth at 10 µM (EKVX) was 22%. The “growth inhibition (GI)” value (HCT-15) was “inactive”, the inhibition of growth at 10 µM (CCRF-CEM) was 20% and the inhibition of growth at 10 µM (UACC-62) was 14%. It also gave an inhibition [1] of 52.6%, an inhibition of growth at 10 µM (PC-3) of 26% and an inhibition of growth at 10 µM (LOX IMVI) of 12%. The inhibition of growth at 10 µM (T47D) was 7% and the inhibition of growth at 10 µM (CAKI-1) was 17%.

Molecule `N#Cc1ccc(C(=O)Cn2cc(CNC(=O)CN3c4ccccc4Sc4ccccc43)nn2)cc1` has an inhibition [1] of 24.9%.

`N#Cc1ccc(C(=O)Cn2cc(COC(=O)CCN3c4ccccc4Sc4ccccc43)nn2)cc1` gave an inhibition [1] of 55.1%.
